Our source for the EC50 and Ki values is patent US10501421B1, “Substituted benzimidazoles as modulators of Ras signaling” (VANDERBILT UNIVERSITY, priority 2017, dated 2019).

pEC50, pKi: −log10 of the molar value. Structures can show the parent of a compound that is named as a salt.

Experiment [1] concerns the target Ras GEF SOS (Son of Sevenless) (Homo sapiens, UniProt Q07889). Kind of experiment: SOS-mediated nucleotide exchange on Ras (BODIPY-GDP fluorescence). Format: biochemical. The conditions noted are these: SOS-mediated exchange of BODIPY-GDP for GTP on Ras. The gist of the method: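 Ras loaded with BODIPY-GDP was mixed in buffer with test compound, then GTP and SOS. Fluorescence change from labeled GDP/GTP exchange was followed over time, and rates came from single-exponential fits. EC50 came from a four-parameter fit of mean rate against compound concentration.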

A further experiment has as its target T1, Son of Sevenless (SOS) (Homo sapiens, UniProt Q07889).
T1 sequence (Q07889 564-1049 limits assumed): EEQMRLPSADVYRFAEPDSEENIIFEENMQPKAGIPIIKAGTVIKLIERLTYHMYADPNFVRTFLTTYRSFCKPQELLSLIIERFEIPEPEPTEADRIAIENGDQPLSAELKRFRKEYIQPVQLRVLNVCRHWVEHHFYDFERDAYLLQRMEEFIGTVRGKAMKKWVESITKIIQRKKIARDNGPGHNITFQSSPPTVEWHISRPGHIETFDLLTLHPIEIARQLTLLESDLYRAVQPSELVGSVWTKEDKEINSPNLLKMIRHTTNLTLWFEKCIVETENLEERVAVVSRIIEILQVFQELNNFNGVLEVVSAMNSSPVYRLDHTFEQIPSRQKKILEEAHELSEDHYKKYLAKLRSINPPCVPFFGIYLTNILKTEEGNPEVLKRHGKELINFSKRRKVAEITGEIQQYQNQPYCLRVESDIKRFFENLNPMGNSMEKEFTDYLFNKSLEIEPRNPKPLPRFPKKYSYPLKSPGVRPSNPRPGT
Kind of experiment: Binding to SOS, fluorescence polarization anisotropy (FPA) probe displacement. The settings on record: displacement of FITC-conjugated probe (Example 285), affinity calculated from IC50. A digest of the protocol:
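A FITC-conjugated probe compound was incubated with SOS in buffer, and its displacement was tracked as a change in fluorescence anisotropy across a test-compound dose range. IC50 came from a four-parameter variable-slope fit, and binding affinity was calculated from it.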

Sequence of Ras GEF SOS (Son of Sevenless) (P01112 1-166 partner limits assumed, one chain of several): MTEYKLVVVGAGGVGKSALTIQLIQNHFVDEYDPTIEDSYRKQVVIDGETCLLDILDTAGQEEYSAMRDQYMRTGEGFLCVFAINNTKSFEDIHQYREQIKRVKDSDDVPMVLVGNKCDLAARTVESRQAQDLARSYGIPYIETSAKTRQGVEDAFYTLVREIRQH

Broadly, the pEC50 is the negative decadic logarithm of the EC50, by convention in mol/L. By pKi is commonly meant the negative decadic logarithm of the Ki, by convention in mol/L. Molecule `Cc1cc(Cn2c(N3CCNCC3)nc3c(-c4ccnn4-c4cccc5ccccc45)cc(Cl)cc32)cc(C)c1F` [Example 177, 6-chloro-1-(4-fluoro-3,5-dimethylbenzyl)-4-(1-(naphthalen-1-yl)-1H-pyrazol-5-yl)-2-(piperazin-1-yl)-1H-benzo[d]imidazole trifluoroacetate] gave a negative-log EC50 (pEC50) in experiment [1] of 4.00 to 4.52. In addition, at Son of Sevenless (SOS), the pKi was 5.30 to 6.00.

`Cc1cc(Cn2c(N3CCNCC3)nc3c(-c4ccccc4C#Cc4ccccc4Cl)cc(Cl)cc32)cc(C)c1F` [Example 183, 6-chloro-4-(2-((2-chlorophenyl)ethynyl)phenyl)-1-(4-fluoro-3,5-dimethylbenzyl)-2-(piperazin-1-yl)-1H-benzo[d]imidazole trifluoroacetate] gave a pEC50 in experiment [1] of 5.30 to 6.00. Also, the pKi on Son of Sevenless (SOS) was 6.00 to 6.30.

`Cc1cc(N2CCC(N)CC2)c2nc(N3CCNCC3)n(Cc3cc(C)c(F)c(C)c3)c2c1` [Example 188, 1-(1-(4-fluoro-3,5-dimethylbenzyl)-6-methyl-2-(piperazin-1-yl)-1H-benzo[d]imidazol-4-yl)piperidin-4-amine trifluoroacetate] had a negative logarithm of the EC50 (pEC50) in experiment [1] of 5.30 to 6.00. For the same molecule, on Son of Sevenless (SOS), the pKi was 6.00 to 6.30.

In experiment [1], `Cc1cc(CN(C)C)c2ncn(Cc3ccc(F)c(Cl)c3)c2c1` [Example 145, 1-(1-(3-chloro-4-fluorobenzyl)-6-methyl-1H-benzo[d]imidazol-4-yl)-N,N-dimethylmethanamine trifluoroacetate] had a pEC50 of 4.00 to 4.52. Also, the pKi on Son of Sevenless (SOS) was less than 5.30.

`CNCCN(C)c1cc(C)cc2c1nc(N1CCNCC1)n2Cc1cc(C)c(F)c(C)c1` [Example 192, N^1-(1-(4-fluoro-3,5-dimethylbenzyl)-6-methyl-2-(piperazin-1-yl)-1H-benzo[d]imidazol-4-yl)-N^1,N^2-dimethylethane-1,2-diamine trifluoroacetate] had a pEC50 in experiment [1] of 5.30 to 6.00. Moreover, the pKi at Son of Sevenless (SOS) is 6.00 to 6.30.

Turning to `Cc1ccc2nc(N3CCNCC3)n(Cc3ccc(F)c(Cl)c3)c2c1` [Example 61, 1-(3-chloro-4-fluorobenzyl)-6-methyl-2-(piperazin-1-yl)-1H-benzo[d]imidazole trifluoroacetate], the pEC50 in experiment [1] was 5.30 to 6.00. For the same molecule, on Son of Sevenless (SOS), the pKi is 5.30 to 6.00.

`Cc1cc2c(cc1C)N(Cc1ccc(F)c(Cl)c1)C1=NCCCN12` [Example 213, 10-(3-chloro-4-fluorobenzyl)-7,8-dimethyl-2,3,4,10-tetrahydrobenzo[4,5]imidazo[1,2-a]pyrimidine]: the negative logarithm of the EC50 (pEC50) in experiment [1] is 5.30 to 6.00. The negative logarithm of the Ki (pKi) at Son of Sevenless (SOS) was less than 5.30.

In experiment [1], `Cc1cc(Br)c2nc(NCCN)n(Cc3cc(C)c(F)c(C)c3)c2c1` [Example 313, N^1-(4-bromo-1-(4-fluoro-3,5-dimethylbenzyl)-6-methyl-1H-benzo[d]imidazol-2-yl)ethane-1,2-diamine] showed a pEC50 of 5.30 to 6.00. Further, the pKi on Son of Sevenless (SOS) was 5.30 to 6.00.

For the molecule `Cc1cc(N(C)CCN(C)C)c2nc(N3CCNCC3)n(Cc3cc(C)c(F)c(C)c3)c2c1` [Example 191, N^1-(1-(4-fluoro-3,5-dimethylbenzyl)-6-methyl-2-(piperazin-1-yl)-1H-benzo[d]imidazol-4-yl)-N^1,N^2,N^2-trimethylethane-1,2-diamine trifluoroacetate], the negative-log EC50 (pEC50) in experiment [1] is 5.30 to 6.00. The pKi on Son of Sevenless (SOS) was 6.00 to 6.30.

In turn, `CCc1cc2c(cc1C)nc(N1CCNCC1)n2Cc1ccc(F)c(CC)c1` [Example 67, 6-ethyl-1-(3-ethyl-4-fluorobenzyl)-5-methyl-2-(piperazin-1-yl)-1H-benzo[d]imidazole trifluoroacetate] showed a negative-log EC50 (pEC50) in experiment [1] of 4.52 to 5.30. The pKi on Son of Sevenless (SOS) was less than 5.30.

For `Cc1ccc2nc([C@@H]3CCC(=O)N3)n(Cc3ccc(F)c(Cl)c3)c2c1` [Example 274, (5S)-5-[1-[(3-chloro-4-fluorophenyl)methyl]-6-methylbenzimidazol-2-yl]pyrrolidin-2-one], the pEC50 in experiment [1] is 5.30 to 6.00. The pKi at Son of Sevenless (SOS) was less than 5.30.

With `Cc1cc(OCCN2CCN(C)CC2)c2nc(NCCN)n(Cc3cc(C)c(F)c(C)c3)c2c1` [Example 331, N^1-(1-(4-fluoro-3,5-dimethylbenzyl)-6-methyl-4-(2-(4-methylpiperazin-1-yl)ethoxy)-1H-benzo[d]imidazol-2-yl)ethane-1,2-diamine], the pEC50 in experiment [1] is greater than 6.00. In addition, at Son of Sevenless (SOS), the negative logarithm of the Ki (pKi) is 6.00 to 6.30.

In experiment [1], `CC(C)N1CC[C@@H](C(=O)c2ccccc2)[C@@H]1c1cc(Cl)cc2c1nc(N1CCNCC1)n2Cc1ccc(F)c(Cl)c1` [Example 153, ((2R,3R)-2-(6-chloro-1-(3-chloro-4-fluorobenzyl)-2-(piperazin-1-yl)-1H-benzo[d]imidazol-4-yl)-1-isopropylpyrrolidin-3-yl)(phenyl)methanone trifluoroacetate] showed a pEC50 of 4.52 to 5.30. Further, at Son of Sevenless (SOS), the pKi is less than 5.30.

For the molecule `Cc1cc2nc(N3CCNCC3)n(Cc3cccc(Br)c3)c2cc1C` [Example 34, 1-(3-bromobenzyl)-5,6-dimethyl-2-(piperazin-1-yl)-1H-benzo[d]imidazole trifluoroacetate], in experiment [1], the pEC50 is 4.52 to 5.30. For the same molecule, the negative-log Ki (pKi) on Son of Sevenless (SOS) was less than 5.30.

In the case of `Cc1cc(Cn2c(NCCN)nc3c(-c4ccccc4Cl)cc(Cl)cc32)cc(C)c1F` [Example 306, N^1-(6-chloro-4-(2-chlorophenyl)-1-(4-fluoro-3,5-dimethylbenzyl)-1H-benzo[d]imidazol-2-yl)ethane-1,2-diamine], the pEC50 in experiment [1] is 5.30 to 6.00. Further, the pKi on Son of Sevenless (SOS) was greater than 6.30.

For the molecule `COC(=O)c1cnn(CCN(C)C)c1-c1cc(C)cc2c1nc(N1CCNCC1)n2Cc1ccc(F)c(Cl)c1` [Example 180, methyl 5-(1-(3-chloro-4-fluorobenzyl)-6-methyl-2-(piperazin-1-yl)-1H-benzo[d]imidazol-4-yl)-1-(2-(dimethylamino)ethyl)-1H-pyrazole-4-carboxylate], the pEC50 in experiment [1] was greater than 6.00. Moreover, the pKi on Son of Sevenless (SOS) is 5.30 to 6.00.

Consider `Cc1cc(OC2CCNCC2)c2nc(N3CCNCC3)n(Cc3cc(C)c(F)c(C)c3)c2c1` [Example 315, 1-(4-fluoro-3,5-dimethylbenzyl)-6-methyl-2-(piperazin-1-yl)-4-(piperidin-4-yloxy)-1H-benzo[d]imidazole], for which the pEC50 in experiment [1] is greater than 6.00. Also, the pKi on Son of Sevenless (SOS) was 5.30 to 6.00.

In turn, `Cc1cc2c(nc(N3CCNCC3)n2Cc2ccc(F)c(C)c2)c(-c2ccccc2C)n1` [Example 225, 1-(4-fluoro-3-methylbenzyl)-6-methyl-2-(piperazin-1-yl)-4-(o-tolyl)-1H-imidazo[4,5-c]pyridine] showed a pEC50 in experiment [1] of 4.52 to 5.30. Besides, on Son of Sevenless (SOS), the pKi is less than 5.30.

Turning to `OCc1cc(Cl)cc2c1nc(N1CCNCC1)n2Cc1ccc(F)c(Cl)c1` [Example 278, [6-chloro-1-[(3-chloro-4-fluorophenyl)methyl]-2-piperazin-1-ylbenzimidazol-4-yl]methanol], the pEC50 in experiment [1] is greater than 6.00. Moreover, the pKi at Son of Sevenless (SOS) is 5.30 to 6.00.

The molecule `CCCN1CC[C@@H](C(=O)c2ccccc2)[C@H]1c1cc(Cl)cc2c1nc(N1CCNCC1)n2Cc1cc(C)c(F)c(C)c1` [Example 148, ((2S,3R)-2-(6-chloro-1-(4-fluoro-3,5-dimethylbenzyl)-2-(piperazin-1-yl)-1H-benzo[d]imidazol-4-yl)-1-propylpyrrolidin-3-yl)(phenyl)methanone trifluoroacetate] showed a pEC50 in experiment [1] of 5.30 to 6.00. Besides, the pKi on Son of Sevenless (SOS) is 6.00 to 6.30.

Turning to `Cc1cc2nc(NCCN)n(Cc3ccc(Cl)cc3)c2cc1C` [Example 20, N^1-(1-(4-chlorobenzyl)-5,6-dimethyl-1H-benzo[d]imidazol-2-yl)ethane-1,2-diamine trifluoroacetate], the pEC50 in experiment [1] is 4.52 to 5.30. For the same molecule, the pKi on Son of Sevenless (SOS) is less than 5.30.

In the case of `Cc1cc2nc(NCCN)n(Cc3ccc(F)c(Cl)c3)c2cc1C` [Example 17, N1-(1-(3-chloro-4-fluorobenzyl)-5,6-dimethyl-1H-benzo[d]imidazol-2-yl)ethane-1,2-diamine trifluoroacetate], the pEC50 in experiment [1] was 5.30 to 6.00. Moreover, the pKi at Son of Sevenless (SOS) was 5.30 to 6.00.

In the case of `Cc1cc2nc(NCCN)n(Cc3cccc(Br)c3)c2cc1C` [Example 35, N^1-(1-(3-bromobenzyl)-5,6-dimethyl-1H-benzo[d]imidazol-2-yl)ethane-1,2-diamine trifluoroacetate], the pEC50 in experiment [1] is 5.30 to 6.00. Moreover, the pKi on Son of Sevenless (SOS) was 5.30 to 6.00.

With `Cc1cc(Cn2c(N3CCNCC3)nc3c(OCCN(C)C)cccc32)ccc1F` [Example 210, 2-((1-(4-fluoro-3-methylbenzyl)-2-(piperazin-1-yl)-1H-benzo[d]imidazol-4-yl)oxy)-N,N-dimethylethan-1-amine], the negative logarithm of the EC50 (pEC50) in experiment [1] is greater than 6.00. Besides, the pKi at Son of Sevenless (SOS) is less than 5.30.

With `CCc1cc(Cn2c(NCCN)nc3c(-c4c(C)nn(C)c4C)c(C)c(C)cc32)ccc1Cl` [Example 115, N^1-(1-(4-chloro-3-ethylbenzyl)-5,6-dimethyl-4-(1,3,5-trimethyl-1H-pyrazol-4-yl)-1H-benzo[d]imidazol-2-yl)ethane-1,2-diamine trifluoroacetate], the pEC50 in experiment [1] was 4.52 to 5.30. Further, the pKi at Son of Sevenless (SOS) is less than 5.30.
